Experimental findings from PubChem BioAssay AID330 (DTP/NCI, 2004) are described below.

Several values for one entry are separate records, joined by “and”; a condition that tells them apart may be missing. Equal entries are not always repeated. Toxic doses and inconclusive results are not listed.

This assay has as its system P388 leukemia ip, CD2F1 mice, survival T/C. The assay can be described thus: NCI In Vivo Anticancer Drug Screen. Data for tumor model P388 Leukemia (intraperitoneal) in CD2F1 (CDF1) mice. Particulars: endpoint: median survival time, higher = longer survival. Summed up:
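Mice carrying the transplanted tumor received test compound or vehicle. Survival was recorded in each group, and the value is the treated-group measurement divided by that of the vehicle-treated control group.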

Where [1] appears, read: dose: 100.0 mg/kg/injection, schedule: Q01DX005 (ip), vehicle: saline with Tween-80.

For the compound `O=C(O)CCCc1ccc(N(CCCl)CCCl)cc1`, the T/C was 106 % of control (dose: 1.0 mg/kg/injection, schedule: Q01DX005 (ip), vehicle: saline with Tween-80); 109 % of control (dose: 1.0 mg/kg/injection, schedule: Q03HX024 (ip), vehicle: saline); 113 % of control and 119 % of control and 121 % of control (dose: 1.25 mg/kg/injection, schedule: Q01DX005 (ip), vehicle: saline with Tween-80); 117 % of control (dose: 1.3 mg/kg/injection, schedule: Q01DX009 (ip), vehicle: saline + alcohol); 113 % of control (dose: 2.0 mg/kg/injection, schedule: Q01DX005 (ip), vehicle: saline with Tween-80); 123 % of control (dose: 2.0 mg/kg/injection, schedule: Q03HX016 (ip), vehicle: saline). For the same compound, the T/C is 163 % of control (dose: 2.0 mg/kg/injection, schedule: Q03HX024 (ip), vehicle: saline); 110 % of control (dose: 2.0 mg/kg/injection, schedule: Q04DX003 (ip), vehicle: Klucel (hydroxypropylcellulose) (HPC)); 120 % of control (dose: 2.2 mg/kg/injection, schedule: Q01DX009 (ip), vehicle: saline + alcohol); 114 % of control (dose: 2.59 mg/kg/injection, schedule: Q04DX002 (ip), vehicle: saline with Tween-80); 160 % of control (dose: 3.24 mg/kg/injection, schedule: Q01DX009 (ip), vehicle: Klucel (hydroxypropylcellulose) (HPC)); 115 % of control (dose: 3.6 mg/kg/injection, schedule: Q01DX009 (ip), vehicle: saline + alcohol). Moreover, the T/C is 118 % of control (dose: 3.75 mg/kg/injection, schedule: Q01DX009 (ip), vehicle: Klucel (hydroxypropylcellulose) (HPC)); 120 % of control (dose: 4.0 mg/kg/injection, schedule: Q01DX009 (ip), vehicle: saline); 118 % of control (dose: 4.0 mg/kg/injection, schedule: Q01DX009 (sc), vehicle: saline); 150 % of control (dose: 4.0 mg/kg/injection, schedule: Q03HX008 (ip), vehicle: saline); 204 % of control (dose: 4.0 mg/kg/injection, schedule: Q03HX016 (ip), vehicle: saline); 111 % of control (dose: 4.0 mg/kg/injection, schedule: Q04DX003 (ip), vehicle: Klucel (hydroxypropylcellulose) (HPC)). Moreover, the T/C was 119 % of control (dose: 4.32 mg/kg/injection, schedule: Q04DX002 (ip), vehicle: saline with Tween-80); 153 % of control (dose: 4.5 mg/kg/injection, schedule: Q01DX009 (ip), vehicle: saline + alcohol); 154 % of control (dose: 5.0 mg/kg/injection, schedule: Q01DX009 (ip), vehicle: saline + alcohol); 180 % of control (dose: 5.4 mg/kg/injection, schedule: Q01DX009 (ip), vehicle: Klucel (hydroxypropylcellulose) (HPC)); 180 % of control (dose: 6.7 mg/kg/injection, schedule: Q01DX009 (ip), vehicle: saline + alcohol); 122 % of control (dose: 7.5 mg/kg/injection, schedule: Q01DX009 (ip), vehicle: Klucel (hydroxypropylcellulose) (HPC)). Further, the T/C by setting is: (dose: 8.0 mg/kg/injection, schedule: Q01DX005 (ip), vehicle: saline with Tween-80) 186 % of control; (dose: 8.0 mg/kg/injection, schedule: Q01DX009 (ip), vehicle: saline) 170 % of control; (dose: 8.0 mg/kg/injection, schedule: Q01DX009 (sc), vehicle: saline) 118 % of control; (dose: 8.0 mg/kg/injection, schedule: Q03HX016 (ip), vehicle: saline) 200 % of control; (dose: 8.0 mg/kg/injection, schedule: Q03HX024 (ip), vehicle: saline) 90 % of control; (dose: 8.0 mg/kg/injection, schedule: Q04DX003 (ip), vehicle: saline) 113 % of control. In addition, the T/C is, setting by setting: (dose: 8.0 mg/kg/injection, schedule: Q04DX003 (ip), vehicle: water) 113 % of control; (dose: 9.0 mg/kg/injection, schedule: Q01DX009 (ip), vehicle: Klucel (hydroxypropylcellulose) (HPC)) 152 % of control; (dose: 10.0 mg/kg/injection, schedule: Q01DX009 (ip), vehicle: saline + alcohol) 166 % of control and 172 % of control and 183 % of control; (dose: 10.0 mg/kg/injection, schedule: Q01DX009 (ip), vehicle: saline with Tween-80) 160 % of control; (dose: 15.0 mg/kg/injection, schedule: Q01DX009 (ip), vehicle: Klucel (hydroxypropylcellulose) (HPC)) 115 % of control; (dose: 15.0 mg/kg/injection, schedule: Q01DX009 (ip), vehicle: saline with Tween-80) 173 % of control. The T/C runs as follows: (dose: 16.0 mg/kg/injection, schedule: Q01DX001 (ip), vehicle: saline) 113 % of control; (dose: 16.0 mg/kg/injection, schedule: Q01DX001 (sc), vehicle: saline) 104 % of control; (dose: 16.0 mg/kg/injection, schedule: Q01DX005 (ip), vehicle: saline with Tween-80) 176 % of control; (dose: 16.0 mg/kg/injection, schedule: Q01DX009 (sc), vehicle: saline) 122 % of control; (dose: 16.0 mg/kg/injection, schedule: Q03HX008 (ip), vehicle: saline) 186 % of control; (dose: 16.0 mg/kg/injection, schedule: Q03HX016 (ip), vehicle: saline) 95 % of control. Further, the T/C (dose: 16.0 mg/kg/injection, schedule: Q04DX003 (ip), vehicle: Klucel (hydroxypropylcellulose) (HPC)) is 169 % of control; the T/C (dose: 16.0 mg/kg/injection, schedule: Q08DX002 (ip), vehicle: saline) is 154 % of control; the T/C (dose: 16.7 mg/kg/injection, schedule: Q01DX009 (ip), vehicle: saline + alcohol) was 120 % of control; the T/C (dose: 20.0 mg/kg/injection, schedule: Q01DX009 (ip), vehicle: saline with Tween-80) is 187 % of control; the T/C (dose: 20.0 mg/kg/injection, schedule: Q04DX002 (ip), vehicle: saline with Tween-80) was 163 % of control; the T/C (dose: 27.8 mg/kg/injection, schedule: Q01DX009 (ip), vehicle: saline + alcohol) was 59 % of control. Moreover, the T/C (dose: 32.0 mg/kg/injection, schedule: Q01DX001 (sc), vehicle: saline) was 109 % of control; the T/C (dose: 32.0 mg/kg/injection, schedule: Q04DX003 (ip), vehicle: Klucel (hydroxypropylcellulose) (HPC)) was 100 % of control; the T/C (dose: 32.0 mg/kg/injection, schedule: Q04DX003 (ip), vehicle: saline) is 190 % of control; the T/C (dose: 32.0 mg/kg/injection, schedule: Q04DX003 (ip), vehicle: water) was 154 % of control and 212 % of control; the T/C (dose: 32.0 mg/kg/injection, schedule: Q08DX002 (ip), vehicle: saline) is 190 % of control; the T/C (dose: 64.0 mg/kg/injection, schedule: Q01DX001 (sc), vehicle: saline) was 113 % of control.

As to `CCCCC(CC)C(=O)OC(C)CN(CC(C)OC(=O)C(CC)CCCC)C(=O)C(C)OC(=O)C(CC)CCCC` (stereo not given), the T/C is 103 % of control (dose: 50.0 mg/kg/injection, schedule: Q01DX005 (ip), vehicle: saline with Tween-80); 96 % of control under setting [1]; 103 % of control (dose: 200.0 mg/kg/injection, schedule: Q01DX005 (ip), vehicle: saline with Tween-80).

Turning to `[O-][n+]1cccc2c3ccccc3ncc21`, the T/C by setting is: (dose: 6.25 mg/kg/injection, schedule: Q04DX002 (ip), vehicle: saline with Tween-80) 94 % of control; (dose: 12.5 mg/kg/injection, schedule: Q04DX002 (ip), vehicle: saline with Tween-80) 108 % of control; (dose: 25.0 mg/kg/injection, schedule: Q04DX002 (ip), vehicle: saline with Tween-80) 100 % of control.

`Cn1c2ccccc2c(=Nc2ccc(S(N)(=O)=O)cc2)c2ccccc21`: the T/C under setting [1] was 97 % of control.

On to `CCCCCCCNc1nn[nH]n1`, for which the T/C was 100 % of control (dose: 50.0 mg/kg/injection, schedule: Q01DX005 (ip), vehicle: Klucel (hydroxypropylcellulose) (HPC)); 104 % of control (dose: 100.0 mg/kg/injection, schedule: Q01DX005 (ip), vehicle: Klucel (hydroxypropylcellulose) (HPC)); 98 % of control (dose: 200.0 mg/kg/injection, schedule: Q01DX005 (ip), vehicle: Klucel (hydroxypropylcellulose) (HPC)).

As to `COc1cc2c(cc1C(CC(C)O)c1cc(OC)c(OC)c(OC)c1)OCO2` (stereo not given), the T/C by setting is: (dose: 60.0 mg/kg/injection, schedule: Q01DX005 (ip), vehicle: saline with Tween-80) 100 % of control; (dose: 120.0 mg/kg/injection, schedule: Q01DX005 (ip), vehicle: saline with Tween-80) 90 % of control; (dose: 240.0 mg/kg/injection, schedule: Q01DX005 (ip), vehicle: saline with Tween-80) 98 % of control.

For the compound `CCCCN(CCCC)CC(C)(O)CNc1cc(OC)cc2cccnc12` (stereo not given), the T/C was 101 % of control (dose: 25.0 mg/kg/injection, schedule: Q01DX005 (ip), vehicle: saline); 107 % of control (dose: 50.0 mg/kg/injection, schedule: Q01DX005 (ip), vehicle: saline); 98 % of control (dose: 100.0 mg/kg/injection, schedule: Q01DX005 (ip), vehicle: saline).
